Tested on: glutathione transferase (GST-tSBO, identical to GST-mu)
Assay: Glutathione transferase activity of human liver cytosols (105,000 g supernatants) toward tauromustine and trans-stilbene oxide as substrates
Format: in vitro ADME
Protocol: Human liver biopsies from ? 3 individuals were homogenized in 5 vol. of 0.25 M sucrose, centrifuged at 10,000 g for 15 minutes and then the resulting supernatant was re-centrifuged at 105,000 g for one hour. The 105,000 g supernatants were analyzed for glutathione transferase activity using trans-stilbene oxide (tSBO) and tauromustine as substrates. Metabolism of these substrates to glutathione conjugates was monitored by radiometric procedures involving differential organic solvent extraction, see Gill, S., Ota, J. and Hammock, B. D. Anal. Biochem. 131: 273-282 (1983), and high pressure liquid chromatography (HPLC).

CN(C)S(=O)(=O)CCNC(=O)N(CCCl)N=O [tauromustine]
glutathione transferase activity toward tauromustine (human liver cytosols with GST-tSBO activity 0-10 nmo/min/mg protein (GST mu lacking)): 0-2 nmol/min/mg protein
glutathione transferase activity toward tauromustine (metabolism of tauromustine) (human liver cytosols with easily detectable GST-tSBO activity, 25-65 nmol/min/mg protein (GST mu present)): 4-19 nmol/min/mg protein
extent of metabolism by human liver cytosols having GST mu activity versus cytosols lacking GST mu activity (human liver cytosols, GST mu (+) vs (-)): metabolized to a much greater extent
